Test results from patent US11541029B2, “High penetration compositions and their applications” (Techfields Pharma Co., Ltd., priority 2008, dated 2023).

Tests used:
[1] = test system: SLAC:NOD-IDDM, type 1 diabetes; assay: Anti-diabetes (type I) activity of HPCs of NSAIAs; type: in vivo, mice
How it was run: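 Prodrugs given transdermally to the shaved back (about 1.5 cm^2) twice daily at 8 am and 5 pm for 7 weeks, dosed as equal to 20 mg/kg of NSAIA. Non-fasting blood glucose was measured every 3 days at 4:30 pm from week 4 to week 7.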

[2] = Distribution in organs of rats killed with CO2 (absence of general circulation); details: 5 hrs after 0.3 mmol/kg diethylaminoethyl acetylsalicylate HCl salt on back of killed rats;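 note: tissue concentration in nmol/g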
Description: 0.3 mmol/kg of diethylaminoethyl acetylsalicylate HCl salt (10% in pure water) was applied to the back of rats (10 cm^2) which were killed with CO2. The rats were shaken for 5 hrs, then the HPCs and parent drugs in organs of rats were determined.

[3] = test system: GK rats (SLAC/GK, type 2 diabetes); assay: Anti-diabetes (type II) activity of HPCs of NSAIAs in GK rats; type: in vivo; details: 30 mg/kg transdermally once per day, no fasting
How it was run: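 GK (type 2 diabetic) and normal SD rats, 14-16 weeks old, n=7, received 30 mg/kg test compound in 25% ethanol transdermally on a 6 cm^2 shaved back area once daily at 8 am for 6 weeks. Non-fasting blood glucose was measured at 4:30 pm every 3 days from week 3 to week 6.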

[4] = test system: Human breast cancer cells (BCAP-37); assay: Human breast cancer xenograft in nude mice
How it was run: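 BCAP-37 tumour tissue (2-3 mm^3 per mouse) implanted subcutaneously in BALB nude mice, 12 groups of 7. Test salts given as 50 μl of 5% aqueous solution (2.5 mg compound per dose).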

## CCN(CC)CCOC(=O)c1ccccc1OC(C)=O.Cl [P-1, diethylaminoethyl acetylsalicylate.HCl salt]
[1]; equal to 20 mg/kg of NSAIAs transdermally twice per day for 7 weeks
  blood glucose, Baseline: 18.1 ± 4.5 mmol/L
[1]; fourth week to seventh week, no fasting, equal to 20 mg/kg of NSAIAs transdermally twice per day
  blood glucose, Average: 7.5 ± 1.8 mmol/L
[2]
  concentration in Leg muscle: 5.2 ± 3.2 nmol/g
  concentration in kidney: 3.1 ± 1.4 nmol/g
  concentration in liver: 1.2 ± 1.1 nmol/g
  concentration in pancreas: 2.7 ± 1.3 nmol/g
  concentration in stomach: 4.3 ± 1.1 nmol/g
[3]
  blood glucose, Average (Week 2-5): 6.4 ± 2.4 mmol/L
  blood glucose, Day 1: 17.1 ± 2.8 mmol/L
[4]; 50 μl of 5% topically every 8 hours
  tumor Size at day 42: 140 ± 50 mm^3
[4]; in vivo
  Weight of mice at day 42: 24 ± 3
